Measured values published in ChEMBL document CHEMBL1201862, “PubChem BioAssay data set” (2004).
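These data come from cells grown in 96-well plates and exposed to compound for 48 hours at five concentrations. Here, GI50 denotes the concentration required for 50% inhibition of growth.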 Activity calls are given as the source filed them. Rule as the data show it: active = GI50 up to about 1.1 µM and inactive = higher.

Legend:
Test in all cases: NCI tumour cell line growth inhibition, 48 h
BT-549 = test system: BT-549
Hs-578T = test system: Hs-578T
DLD-1 = test system: DLD-1
DMS-273 = test system: DMS-273
HOP-18 = test system: HOP-18
LXFL 529 = test system: LXFL 529
XF498 = test system: XF498
SNB-78 = test system: SNB-78

Row | Compound | GI50 (BT-549) | GI50 (Hs-578T) | GI50 (LXFL 529) | further results
1 | CC(C)=CC[S+]([O-])c1ccccc1NC1=CC(=O)CC(C)(C)C1 (stereo unspecified) | > 100 µM (inactive) | > 100 µM (inactive) |  | 
2 | COC(c1cccc(C(O)(C(F)(F)F)C(F)(F)F)c1)(C(F)(F)F)C(F)(F)F |  |  | 17.5 µM (inactive) | GI50 (DLD-1): 20.3 µM (inactive); GI50 (DMS-273): 19.3 µM (inactive); GI50 (HOP-18): 18.2 µM (inactive); GI50 (XF498): 15 µM (inactive)
3 | O=C1C(Cl)N(c2cccc([N+](=O)[O-])c2)C1c1c[nH]c2ccccc12 (stereo unspecified) |  |  | 6.25 µM (inactive) | 
4 | COc1cc(Nc2cc(Cl)cc(Cl)c2)nc(N)n1 | 17.1 µM (inactive) | 26.2 µM (inactive) |  | 
5 | CCOC(=O)COc1cc(-c2ccccc2F)nc2cc3c(cc12)OCO3 | > 100 µM (inactive) |  |  | 
6 | O=C1CC2(CCNCC2)C(=O)N1N1CCCCC1 | > 100 µM (inactive) | > 100 µM (inactive) |  | 
7 | O=C(CSSCC(=O)Nc1ccc(Br)cc1)Nc1ccc(Br)cc1 |  |  | 16 µM (inactive) | GI50 (DLD-1): 18.1 µM (inactive); GI50 (DMS-273): 16.5 µM (inactive); GI50 (SNB-78): 15.1 µM (inactive); GI50 (XF498): 20.1 µM (inactive)
8 | Cc1ccc(Nc2nc(NNC(=O)Cc3ccccc3)nc(NNC(=O)c3ccncc3)n2)cc1 | > 10 µM (inactive) | > 10 µM (inactive) |  | 
9 | COc1ccc(OC)c2c(C(C)=O)cccc12 |  | 88.9 µM (inactive) |  | 
10 | COc1cc2c(c3nc4ccccc4nc13)-c1ccc(SC)c(=O)cc1[C@@H](NC(C)=O)CC2 |  | 0.0182 µM (active) |  | 
11 | CC(=O)OC(C)c1cc2c(s1)C(=O)c1sccc1C2=O (stereo unspecified) | 0.7 µM (active) | 0.807 µM (active) |  | 
12 | O=c1[nH]cc(COCC(F)(F)C(F)(F)C(F)(F)C(F)F)c(=O)[nH]1 |  |  | > 100 µM (inactive) | GI50 (DLD-1): > 100 µM (inactive); GI50 (HOP-18): > 100 µM (inactive)
13 | C=C1CC(OC)(C(O)C(=O)N[C@H]2OCO[C@H]3C2O[C@H](C[C@H](O)COC)C(C)(C)C3OC)O[C@H](C)[C@@H]1C (stereo partly specified) |  |  |  | GI50 (DLD-1): < 0.00773 µM (active); GI50 (DMS-273): < 0.00773 µM (active); GI50 (HOP-18): < 0.00773 µM (active); GI50 (SNB-78): < 0.00773 µM (active); GI50 (XF498): < 0.00773 µM (active)
14 | CC1OC(O)CC(N(C)C)C1O.CC1OC(O)CCC1O.CCC1CC(O)c2c(O)c3c(c(O)c2C1O)C(=O)c1cccc(O)c1C3=O (stereo unspecified) | 0.0448 µM (active) | 0.0507 µM (active) |  | 
15 | COc1ccc2c(c1)c1c(n2CCN2CCOCC2)-c2ccccc2CC1 | > 100 µM (inactive) | 18.8 µM (inactive) |  | 
16 | C=C(C(=C)P(=S)(c1ccccc1)c1ccccc1)P(=S)(c1ccccc1)c1ccccc1 |  |  | > 100 µM (inactive) | GI50 (DMS-273): > 100 µM (inactive); GI50 (HOP-18): > 100 µM (inactive); GI50 (SNB-78): > 100 µM (inactive); GI50 (XF498): 73.6 µM (inactive)
